The source of these data is US11708353B2, “Inhibitors of prolyl-tRNA-synthetase” (The General Hospital Corporation, priority 2018, dated 2023).

Bounds are passed on as bounds.

One assay relates to P. falciparum Dd2 (>100× resistence to halofuginone). Put plainly: SYBR Green I asexual blood stage growth assay, Dd2 >100x halofuginone-resistant. The assay is classed as cell-based. Particulars: Plasmodium falciparum, DD2, 72 h, read-out: P. falciparum Dd2 (>100× resistence to halofuginone) Asexual blood stage IC50 (nM). The method, then:
(§1) P. falciparum parasite growth was determined using a fluorescence assay based on the SYBR Green I method according to previously reported protocols (see e.g., Johnson et al, Antimicrob. Agents Chemother. 2007, 51(6):1926-1933). P. falciparum parasites were seeded in 384-well plates at 1% hematocrit and 1% starting parasitemia. Growth was assessed by SYBR Green staining of parasite DNA after 72-hour exposure to compound. All dose-response assays were carried out with 12-point dilutions in technical triplicate. Compounds were dispensed with an HP D300 Digital Dispenser (Hewlett Packard, Palo Alto, Calif., USA). Fluorescence intensity measurements were performed on a SpectraMax M5 (Molecular Devices, Sunnyvale, Calif., USA) and analyzed in GraphPad Prism version 7 (GraphPad Software, La Jolla, Calif., USA) after background subtraction and normalization to control wells. EC50 values were determined using a four-parameter nonlinear regression curve fit from at least three assays and are represented as mean±standard deviation. Statistical significance was determined by the Mann Whitney test.
As a reminder, the IC50 is the concentration that inhibits the measured activity by half. For `O=C(NC1Cc2ccccc2C1)c1nccnc1NC(=O)N1CCCCC1` [Compound 18], the IC50 came to 74 nM.

Another assay has as its system eIF2α phosphorylation.
Assay: not given
As to conditions: cited from earlier work.
On to `Nc1ncnc2c1ncn2[C@@H]1O[C@H](COS(=O)(=O)NC(=O)[C@@H]2CCCN2)[C@@H](O)[C@H]1O` [ProSA, L-prolyl-sulfamoyl adenosine], for which the eIF2α phosphorylation result is on record as “induces eIF2α phosphorylation”.

Another assay has as its system P. falciparum.
Assay: not given
As to conditions: read-out: EC50 against P. falciparum in whole-cell assays; cited from earlier work.
Usually EC50 stands for the concentration at which the effect is half-maximal. As for `Nc1ncnc2c1ncn2[C@@H]1O[C@H](COS(=O)(=O)NC(=O)[C@@H]2CCCN2)[C@@H](O)[C@H]1O` [ProSA, L-prolyl-sulfamoyl adenosine], the EC50 is 0.097 µM.

Another assay has as its system HFG-tolerant 3D7 parasites. Put plainly: Antiparasitic activity in HFG-tolerant 3D7 parasites. In kind it is cell-based. Particulars: Plasmodium falciparum, 3D7, read-out: EC50 in HFG-tolerant parasites. The method, then: as §1, with “test. […]” for “test.”
As to `O=C(NC1Cc2ccccc2C1)c1nccnc1NC(=O)N1CCCCC1` [Compound 18], the EC50 amounted to 0.13 µM.

The subject of a further assay is P. falciparum Dd2 (10× resistence to halofuginone). Put plainly: SYBR Green I asexual blood stage growth assay, Dd2 10x halofuginone-resistant. The assay is classed as cell-based. As to conditions: Plasmodium falciparum, DD2, 72 h, read-out: P. falciparum Dd2 (10× resistence to halofuginone) Asexual blood stage IC50 (nM). As for the experimental part: as §1
For `O=C(NC1Cc2ccccc2C1)c1nccnc1NC(=O)C1CCCCC1` [Compound 16], the IC50 was determined as 1160 nM.

With `O=C(NC1Cc2ccccc2C1)c1nccnc1NC(=O)N1CCCCC1` [Compound 18], the IC50 stood at 130 nM.

The subject of another assay is wild-type 3D7 parasites. Nature of the assay: Antiparasitic activity in wild-type 3D7 parasites. In kind it is cell-based. As to conditions: Plasmodium falciparum, 3D7, read-out: EC50 in wild-type parasites. The method, then:
as §1, with “test. […]” for “test.”
Take `O=C(NC1Cc2ccccc2C1)c1nccnc1NC(=O)N1CCCCC1` [Compound 18]: the EC50 amounted to 0.078 µM.

The next assay concerns P. falciparum Dd2 wildtype. Put plainly: SYBR Green I asexual blood stage growth assay, Dd2 wildtype. Particulars: Plasmodium falciparum, DD2, 72 h, read-out: P. falciparum Dd2 wildtype Asexual blood stage EC50 (nM). The assay is classed as cell-based. The method, then: as §1
Regarding `O=C(CCCC(=O)NC1(C(=O)Nc2nccnc2C(=O)NC2Cc3ccccc3C2)CCCCC1)NCCOCCOCCNC(=O)COc1cccc2c1C(=O)N(C1CCC(=O)NC1=O)C2=O` (stereo not drawn) [Compound 33], the EC50 turned out to be 8540 nM.

Still in this assay, the particulars now being: Plasmodium falciparum, DD2; 72-hour exposure, SYBR Green; read-out: P. falciparum Dd2 wildtype Asexual blood stage EC50.
For `O=C(Nc1nccnc1C(=O)NC1Cc2ccccc2C1)c1ccccc1` [Compound 24], the EC50 was above 10000 nM.

`CC(C)N(C(=O)Nc1nccnc1C(=O)NC1Cc2ccccc2C1)C(C)C` [Compound 8]: the EC50 was determined as 499 nM.

In the case of `O=C(NC1Cc2ccccc2C1)c1nccnc1NC(=O)C1CCOCC1` [Compound 20], the EC50 is above 10000 nM.

Turning to `O=C(O)CCCC(=O)Nc1nccnc1C(=O)NC1Cc2ccccc2C1` [Compound 5], the EC50 is above 10000 nM.

Take `CC(C)(C)OC(=O)N1CCC[C@H]1C(=O)NCCCCNC(=O)Nc1nccnc1C(=O)NC1Cc2ccccc2C1` [Compound 3]: the EC50 was above 10000 nM.

Regarding `O=C(Nc1nccnc1C(=O)NC1Cc2ccccc2C1)NC12CC3CC(CC(C3)C1)C2` [Compound 39], the EC50 was above 10000 nM.

Take `C[C@@H]1CCC[C@H](C)N1C(=O)Nc1nccnc1C(=O)NC1Cc2ccccc2C1` [Compound 14]: the EC50 is 73 nM.

As to `CC(C)(C)OC(=O)N[C@H]1CC[C@@H](C(=O)Nc2nccnc2C(=O)NC2Cc3ccccc3C2)CC1` [Compound 23], the EC50 worked out at 386 nM.

In the case of `O=C(NC1Cc2ccccc2C1)c1nccnc1NC(=O)C1CCCCC1` [Compound 16], the EC50 is 544 nM.

Consider `O=C(NC1Cc2ccccc2C1)c1nccnc1NS(=O)(=O)C1CCCCC1` [Compound 17], for which the EC50 is above 10000 nM.

As for `CN1CCN(C(=O)Nc2nccnc2C(=O)NC2Cc3ccccc3C2)CC1` [Compound 10], the EC50 was determined as 1830 nM.

For `NC1(C(=O)Nc2nccnc2C(=O)NC2Cc3ccccc3C2)CCCCC1` [Compound 34], the EC50 is 4840 nM.

`O=C(NC1Cc2ccccc2C1)c1nccnc1NC(=O)C1CCC1` [Compound 9]: the EC50 was found to be 3540 nM.

For the molecule `O=C(NC1Cc2ccccc2C1)c1nccnc1NC(=S)NC1CCCCC1` [Compound 35], the EC50 is 8270 nM.

Consider `O=C(O)c1nccnc1C(=O)NC1Cc2ccccc2C1` [Compound 27], for which the EC50 is above 10000 nM.

On to `CNc1nccnc1C(=O)NC1Cc2ccccc2C1` [Compound 31], for which the EC50 is above 10000 nM.

Regarding `O=C(NC1Cc2ccccc2C1)c1nccnc1NC(=O)N1CCCC(C(=O)O)C1` (stereo not drawn) [Compound 11], the EC50 was 6200 nM.

On to `O=C(NC1Cc2ccccc2C1)c1nccnc1NC(=O)N(C1CCCCC1)C1CCCCC1` [Compound 13], for which the EC50 was found to be 4940 nM.

For the molecule `Nc1nccnc1C(=O)NC1CCCCC1` [Compound 29], the EC50 was above 10000 nM.

As to `O=C(NC1CCCCC1)c1nccnc1NC(=O)C1Cc2ccccc2C1` [Compound 30], the EC50 was 9540 nM.

As to `CN(C(=O)c1nccnc1N)C1Cc2ccccc2C1` [Compound 38], the EC50 is above 10000 nM.

Consider `NCCCCNC(=O)Nc1nccnc1C(=O)NC1Cc2ccccc2C1` [Compound 1], for which the EC50 was above 10000 nM.

As for `CC(C)(C)OC(=O)N1CCCCC1C(=O)Nc1nccnc1C(=O)NC1Cc2ccccc2C1` (stereo not drawn) [Compound 6], the EC50 came to 3790 nM.

`O=C(NC1Cc2ccccc2C1)c1nccnc1N(C(=O)C1CCCCC1)C(=O)C1CCCCC1` [Compound 22]: the EC50 was 627 nM.

For the molecule `Nc1nccnc1C(=O)NC1Cc2ccccc2C1` [Compound 15], the EC50 was above 10000 nM.

Turning to `O=C(Nc1nccnc1C(=O)NC1Cc2ccccc2C1)NC1CCCCC1` [Compound 36], the concentration giving a half-maximal response (EC50) was above 10000 nM.

Take `Nc1nccnc1C(=O)NCc1ccc(Cl)cc1` [Compound 12]: the EC50 is above 10000 nM.

Turning to `O=C(NC1Cc2ccccc2C1)c1nccnc1NC(=O)C1(O)CCCCC1` [Compound 21], the EC50 came out at 1350 nM.

Turning to `NC(=O)Nc1nccnc1C(=O)NC1Cc2ccccc2C1` [Compound 26], the EC50 is 9960 nM.

On to `CC1(C(=O)Nc2nccnc2C(=O)NC2Cc3ccccc3C2)CCCCC1` [Compound 19], for which the EC50 came to 173 nM.

In the case of `O=C(NC1Cc2ccccc2C1)c1nccnc1NC(=O)C1CCCCN1` (stereo not drawn) [Compound 7], the EC50 stood at 2990 nM.

For the molecule `O=C(NC1CCCCC1)c1nccnc1C(=O)NC1Cc2ccccc2C1` [Compound 28], the EC50 was above 10000 nM.

In the case of `CC(C)(C)OC(=O)NC1(C(=O)Nc2nccnc2C(=O)NC2Cc3ccccc3C2)CCCCC1` [Compound 32], the EC50 worked out at 9520 nM.

On to `O=c1[nH]c2nccnc2c(=O)n1C1Cc2ccccc2C1` [Compound 25], for which the EC50 is above 10000 nM.

On to `O=C(C[C@H]1NCCC[C@@H]1OC(=O)NCCCCNC(=O)Nc1nccnc1C(=O)NC1Cc2ccccc2C1)Cn1cnc2cc(Br)c(Cl)cc2c1=O` [Compound 2], for which the EC50 is above 10000 nM.

Regarding `O=C(NC1Cc2ccccc2C1)c1nccnc1NC(=O)N1CCCCC1` [Compound 18], the EC50 is 63 nM.

Consider `O=C(NC1Cc2ccccc2C1)c1nccnc1NCC1CCCCC1` [Compound 37], for which the EC50 was above 10000 nM.

As to `O=C(NCCCCNC(=O)[C@@H]1CCCN1)Nc1nccnc1C(=O)NC1Cc2ccccc2C1` [Compound 4], the EC50 is above 10000 nM.

The target in another assay is T1, Plasmodium falciparum cytoplasmic prolyl tRNA synthetase (PfcPRS) (Plasmodium falciparum, UniProt Q8I5R7).
T1 sequence (Q8I5R7 1-746): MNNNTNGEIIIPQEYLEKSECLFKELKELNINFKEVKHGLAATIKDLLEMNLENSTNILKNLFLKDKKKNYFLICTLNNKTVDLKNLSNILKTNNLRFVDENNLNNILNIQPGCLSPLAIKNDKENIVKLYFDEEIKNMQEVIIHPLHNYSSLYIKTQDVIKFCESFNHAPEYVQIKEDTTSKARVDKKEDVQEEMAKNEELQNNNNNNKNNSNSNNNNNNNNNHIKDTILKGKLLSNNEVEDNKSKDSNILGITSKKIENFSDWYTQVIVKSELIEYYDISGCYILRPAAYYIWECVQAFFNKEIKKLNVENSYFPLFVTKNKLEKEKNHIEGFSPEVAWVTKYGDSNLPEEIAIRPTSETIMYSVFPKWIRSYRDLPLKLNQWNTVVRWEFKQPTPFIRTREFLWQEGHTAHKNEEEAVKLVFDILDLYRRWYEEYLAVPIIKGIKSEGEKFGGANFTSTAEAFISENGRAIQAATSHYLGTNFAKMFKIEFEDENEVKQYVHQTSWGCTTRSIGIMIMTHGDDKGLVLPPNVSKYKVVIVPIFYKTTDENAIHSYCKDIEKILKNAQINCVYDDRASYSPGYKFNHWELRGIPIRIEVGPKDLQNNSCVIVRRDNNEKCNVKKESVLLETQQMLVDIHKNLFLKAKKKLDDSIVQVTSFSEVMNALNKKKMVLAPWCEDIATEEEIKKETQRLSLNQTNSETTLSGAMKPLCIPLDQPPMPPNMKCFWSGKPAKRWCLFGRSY
Put plainly: Thermal shift (differential scanning fluorimetry) assay. In kind it is binding.
Settings: not given
As for the experimental part: Thermal shift assays were performed in tetricate as previously described (Hewitt et al., 2016). 12.5 μL solutions of 0.14 mg/mL purified recombinant Plasmodium falciparum cytoplasmic prolyl tRNA synthetase (PfcPRS) in a buffer containing […] test compounds (1 mM Compound 18+1 mM Proline; 1 mM Compound 18+0 mM Proline; or DMSO vehicle control), 25 mM HEPES, pH 7.0, 100 mM NaCl, 5 v/v % glycerol, 1 mM TCEP, and optionally 1 mM Proline were incubated at 37° C. for 2 hours in 96 well PCR plates. To this was added 2.5 μL 8× SYRPO Orange Dye (Applied Biosystems 4461141) and 5 μL Protein Thermal Shift Buffer (Applied Biosystems 4461335). Protein stability for protein samples containing the test compounds was compared with apo protein samples by measuring an increase in fluorescence as detected on an Applied Biosystems SDS 7500 Fast qPCR Thermocycler from 25° C. to 99° C. at half degree increments.
(In general: In DSF a fluorescence change marks the thermal transition of the protein.)
For the molecule `O=C(NC1Cc2ccccc2C1)c1nccnc1NC(=O)N1CCCCC1` [Compound 18], the “Binding mode to PfcPRS relative to proline” value is given as “binds PfcPRS in proline-uncompetitive fashion”.

Still in this assay, the particulars now being: with 1 mM vs 0 mM Proline, FIG. 3C.
As to `O=C(NC1Cc2ccccc2C1)c1nccnc1NC(=O)N1CCCCC1` [Compound 18], the “Effect of proline on binding to PfcPRS (differential scanning fluorimetry)” value is given as “Pro potentiates Compound 18 binding to PfcPRS”.
